The text below walks through data of patent US6676925B1, “Sigma-2 receptors as biomarkers of tumor cell proliferation” (priority 1996, dated 2004).

For one assay, the target named is T1, Sigma-2 sites (Rattus norvegicus, UniProt Q5U3Y7).
T1 sequence (Q5U3Y7 1-176): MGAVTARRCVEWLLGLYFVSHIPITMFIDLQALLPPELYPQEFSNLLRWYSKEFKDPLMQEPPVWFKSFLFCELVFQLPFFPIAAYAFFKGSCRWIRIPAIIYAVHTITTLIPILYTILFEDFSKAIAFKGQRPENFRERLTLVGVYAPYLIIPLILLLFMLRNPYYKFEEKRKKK
Put plainly: σ2 binding assay, [^3H]DTG in rat liver membranes in the presence of 100 nM (+)-pentazocine.

For another assay, the target named is Sigma-1 binding sites (Cavia porcellus, UniProt Q60492). Put plainly: σ1 binding assay, [^3H](+)-pentazocine in guinea pig brain membranes.
Sequence of Sigma-1 binding sites (Q60492 whole entry): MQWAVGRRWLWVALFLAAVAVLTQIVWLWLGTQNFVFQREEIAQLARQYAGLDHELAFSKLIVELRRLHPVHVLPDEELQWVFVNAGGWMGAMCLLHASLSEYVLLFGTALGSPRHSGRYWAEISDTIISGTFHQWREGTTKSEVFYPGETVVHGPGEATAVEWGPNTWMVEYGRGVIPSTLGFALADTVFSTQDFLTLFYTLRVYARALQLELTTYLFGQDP

Experimental for Sigma-1 binding sites: Test compounds were dissolved in ethanol (7 concentrations ranging from 1-1000 nM) then diluted in buffer for a total incubation volume of 0.5 mL. Assays were terminated by the addition of ice-cold 10 mM Tris HCl, pH 8.0 followed by rapid filtration through Whatman GF/B glass fiber filters (presoaked in 0.5% polyethylenimine) using a Brandel cell harvester (Gaithersburg, Md.). Filters were washed twice with 5 ML of ice cold buffer. Nonspecific binding was determined in the presence of 10 μM (+)-pentazocine. Liquid scintillation counting was carried out in EcoLite (+) (ICN Radiochemicals; Costa Mesa, Calif.) using a Beckman LS 6000IC spectrometer with a counting efficiency of 50%. Typical counts were 70 dpm/μg protein for total binding, 6 dpm/μg protein for nonspecific binding, and 64 dpm/μg protein for specific binding.
(§1) The IC50 values at sigma sites were determined in triplicate from non-linear regression of binding data as analyzed by JMP (SAS Institute; Cary, N.C.), using 5-10 concentrations of each compound. Ki values were calculated using the Cheng-Prusoff equation and represent mean values ±SEM. All assays were done in triplicate unless otherwise noted.
Experimental for Sigma-2 sites: Assays were terminated by the addition of ice-cold 10 mM Tris-HCl, pH 8.0 followed by rapid filtration through Whatman GF/B glass fiber filters (presoaked in 0.5% polyethylenimine) using a Brandel cell harvester (Gaithersburg, Md.). Filters were then washed twice with 5 mL of ice cold buffer Nonspecific binding was determined in the presence of 5 μM DTG. Liquid scintillation counting was carried out in EcoLite(+) (ICN Radiochemicals; Costa Mesa, Calif.) using a Beckman LS 6000IC spectrometer with a counting efficiency of 50%. […] Typical counts for guinea pig brain were 16 dpm/μg protein for total binding, 2 dpm/μg protein for nonspecific binding, and 14 dpm/μg protein for specific binding.
as §1

The term Ki denotes a measure of affinity in units of concentration, obtained from inhibition or displacement. For the compound `O=C(Nc1ccc(Cl)c(Cl)c1)O[C@H]1C[C@H]2CCC[C@@H](C1)N2Cc1ccccc1` [Compound 4, (3-endo)-9-Benzyl-9-azabicyclo[3.3.1]nonanyl-3-N-(3′, 4′-dichlorophenyl)-carbamate], the values for the Ki on Sigma-2 sites and at Sigma-1 binding sites were 91.9 nM and 33.3 nM, respectively.
Take `COc1ccc(Cl)cc1NC(=O)O[C@H]1C[C@H]2CC[C@@H](C1)N2C` [Compound 3, (3-endo)-8-Methyl-8-azabicyclo[3.2.1]octyl-3-N-(2′-methoxy-5′-chloro-phenyl)-carbamate]: the figures for the Ki at Sigma-2 sites and on Sigma-1 binding sites were 156 nM and greater than 1000 nM, respectively.
For the compound `CN1[C@@H]2CC[C@H]1C[C@@H](OC(=O)Nc1ccc(Cl)c(Cl)c1)C2` [Compound 2, (3-endo)-8-Methyl-8-azabicyclo[3.2.1]octyl-3-N-(3′, 4′-dichlorophenyl)-carbamate], the Ki at Sigma-2 sites was 36.9 nM; at Sigma-1 binding sites, greater than 1000 nM.
For `COc1cc(OC)c(NC(=O)O[C@H]2C[C@H]3CCC[C@@H](C2)N3Cc2ccccc2)cc1Cl` [Compound 6, (3-endo)-9-Benzyl-9-azabicyclo[3.3.1]nonanyl-3-N-(5′-chloro-2′, 4′-dimethoxyphenyl)carbamate], the Ki was 22.9 nM at Sigma-2 sites and 189 nM at Sigma-1 binding sites.
On the same counts, the results for `COc1ccc(Cl)cc1NC(=O)O[C@H]1C[C@H]2CCC[C@@H](C1)N2Cc1ccccc1` [Compound 7, (3-endo)-9-Benzyl-9-azabicyclo[3.3.1]nonanyl-3-N-(5′-chloro-2′-methoxyphenyl)carbamate] are 63.5 nM and greater than 1000 nM.
For `COc1ccc(OC)c(NC(=O)O[C@H]2C[C@H]3CC[C@@H](C2)N3Cc2ccccc2)c1` [Compound 9, (3-endo)-8-Benzyl-8azabicyclo[3.2.1]octyl-3-N-(2′,5′-dimethoxyphenyl)-carbamate], the figures for the Ki at Sigma-2 sites and on Sigma-1 binding sites were 22.1 nM and 72.4 nM, respectively.
On the same counts, the results for `COc1ccc(OC)c(NC(=O)O[C@H]2C[C@H]3CCC[C@@H](C2)N3Cc2ccccc2)c1` [Compound 5, (3-endo)-9-Benzyl-9-azabicyclo[3.3.1]nonanyl-3-N-(2′, 5′-dimethoxyphenyl)-carbamate] are 28.2 nM and 329 nM.
On the same counts, the results for `CN1[C@@H]2CCC[C@H]1C[C@@H](OC(=O)Nc1ccc(Cl)c(Cl)c1)C2` [Compound 8, (3-endo)-9-Methyl-9-azabicyclo[3.3.1]nonanyl-3-N-(3′, 4′-dichlorophenyl)-carbamate] are 50.3 nM and 595 nM.
For the compound `O=C(Nc1ccc(Cl)c(Cl)c1)O[C@H]1C[C@H]2CC[C@@H](C1)N2Cc1ccccc1` [Compound 10, (3-endo)-8-Benzyl-8-azabicyclo[3.2.1]octyl-3-N(3′, 4′-dichlorophenyl)-carbamate], the Ki on Sigma-2 sites came out at 16.2 nM; on Sigma-1 binding sites it was 716 nM.
